Laboratory results taken from patent US4735953A, “Pharmaceutical preparation for learning stimulation and memory improvement” (priority 1986, dated 1988).

Columns and labels:
[1] = system: learning ability of rats preliminarily sorted out for poor learning ability; assay: Active avoidance learning in a shuttle chamber, rats sorted out for poor learning ability; format: in vivo, rat; conditions: poorly learning rats
From the text: In these experiments rats are taught to avoid an electric shock by escaping into a next chamber communicating with the first chamber by means of a special opening--a door. An electric current is applied to the chamber door consisting of metal plates. A conditional irritator is a light signal together with a sound click. The learning series consisted of 50 combinations. The number of combinations necessary for the animal's learning to escape into another chamber in response to the conditional signal was determined. Five correct responses out of 6 where regarded as the proof of stability of the acquired knowledge and were denoted as a "learning criterion". After 7 days the educational procedure was repeated, and again the number of combinations necessary to acquire the "learning criterion" was determined. In the case of difference between the first and second readings the percentage of retention of the acquired knowledge was calculated.
In this experiment the effect of the preparation according to the present invention and prior art preparations was separately evaluated for the purpose of comparison on well-learning and on specially selected poorly learning rats. […] To the poorly learning rats the animals were assigned which reached no "learning criterion" in the teaching series of 50 combinations, or, in other words, a stable knowledge of active avoidance was not worked out in them. […] The preparation according to the present invention and the prior art comparison preparations were administered before the first teaching series or thereafter.
Also studied were the effects produced upon a single and repeated administration of the preparation according to the present invention for 14 days.

rats [2] = assay: Teaching of rats in a T-shaped labyrinth with positive meal support; format: in vivo, rat
From the text: In the second series of experiments the preparation according to the present invention was studied for the effect on teaching of rats in a T-shaped labyrinth in one compartment of which a feedbox with meal was provided. Rats deprived of meals during the day were placed into the starting compartment of the labyrinth and taught to find the feed-box in the proper compartment of the labyrinth. The response time, the number of unrealized reactions, the latent period, and the number of errors were noted.
Similar results were obtained in experiments in a T-shaped labyrinth with the use of a positive meal support.

[3] = system: rabbit's brain hemispheres; assay: Amplitude of induced potential in brain hemispheres (acoustic irritation); format: in vivo; conditions: rabbits
Protocol: In the third series of experiments the effect of the preparation according to the present invention on the functional brain asymmetry was studied. The experiments were carried out on rabbits with electrodes implanted in the brain. The electrodes under nembutal narcosis (40 mg/kg) were implanted strictly symmetrically into the bearing zone of the temporal cortex of the right and left hemispheres on its lateral surface, whereas the indifferent electrode was secured to the nasal bones of a rabbit's skull. The acoustic irritation was applied through earphones. As the acoustic irritation a sound click caused by a square-shaped pulse from an electronic stimulator with a frequency of 0.1-0.2 Hz was used; the click intensity was adjusted within the range of from 5 to 80 Db. The amplification of the taken-off biopotentials was effected on an electroencephalograph; the induced potentials were obtained by means of an analyzer. 100 experiments on 20 animals were thus conducted; the interval between experiments on one animal was 7 days. The amplitude and form of the induced potential were determined. The asymmetry factor (Kas) was calculated by the formula: [formula] Ar --amplitude of the induced potential of the […] hemisphere, μV;
A1 --amplitude of the induced potential of the left hemisphere.
The test preparations were administered hypodermally in the form of 0.5-1.5% aqueous solutions 20 minutes before the beginning of the measurements.

[4] = system: rats persistently choosing the left side of the labyrinth; assay: Lateralization of free behaviour in the T-shaped labyrinth; format: in vivo, rat; conditions: for Number of runs to the right, Series I / Number of runs to the right, Series II / Number of runs to the right, Series III: 20 animals
Protocol: Also studied was the change of lateralization of free behaviour of rats in the T-shaped labyrinth. In the experiment rats of both sexes with a mass of 180-230 g were used. Preliminary experiments were carried out on 120 animals, then a group of 40 animals was chosen which during 20 days selected the left corridor in the first attempt of running through the labyrinth.
The data on the capacity of the preparation according to the present invention to enhance the domination of one (left) brain hemisphere have been supported in behaviour experiments on rats where the change in lateralization of a free behaviour of rats in a T-shaped labyrinth was studied.

mice = assay: Acute toxicity, mice; format: in vivo, mouse; conditions: single intraperitoneal
Protocol: The preparation according to the present invention was also tested for acute and chronic toxicity.

rats [5] = assay: Chronic toxicity, rats; format: in vivo, rat; conditions: hypodermal, 3 months
From the text: (§1) The chronic toxicity of the preparation was studied on three species of animals (rats, dogs, rabbits). In chronic tests on the above-mentioned animals the effect of a long-time hypodermal administration of the preparation according to the present invention on the general state and mass of animals, hemogram, cardio-vascular system, breathing central nervous system, functional state of kidneys, liver, thyroid gland was studied. […] The doses of the preparation employed in the experiments surpassed the required dose for a human being (per kilogram of bodymass) by 5-10 times.

dogs = assay: Chronic toxicity, dogs; format: in vivo, dog; conditions: hypodermal, 6 months
From the text: as §1

[6] = Allergenic activity tests
Protocol: Allergenic activity tests were also carried out for the preparation according to the present invention.

patients = assay: Tolerability and side effects in patients; format: in vivo, human

Which results are given for `Cl.Nc1c2c(nc3c1CCC3)CCCC2.O` [preparation of the invention, 9-amino-2,3,5,6,7,8-hexahydro-1H-cyclopenta(b)quinoline monohydrate hydrochloride]?
% of knowledge retention ([1]; hypodermally 5 mg/kg): 64.3%; Number of combinations till appearance of "learning criterion", I teaching ([1]; hypodermally 5 mg/kg): 21 ± 2.7; Number of combinations till appearance of "learning criterion", II-checking of retention of knowledge ([1]; hypodermally 5 mg/kg): 7.5 ± 0.9; Number of untaught animals in the group ([1]; hypodermally 5 mg/kg): 3/20; % of knowledge retention ([1]; hypodermally I mg/kg): 57.5%; Number of combinations till appearance of "learning criterion", I teaching ([1]; hypodermally I mg/kg): 24 ± 2.5; Number of combinations till appearance of "learning criterion", II-checking of retention of knowledge ([1]; hypodermally I mg/kg): 10.2 ± 1.5; Number of untaught animals in the group ([1]; hypodermally I mg/kg): 6/20; number of response failures as compared to the initial level on the first day of teaching (rats [2]; rats, 5 mg/kg, by the fourth day of teaching, control 60-70%): 40%; number of response failures (in words) (rats [2]; rats, 1, 5 and 10 mg/kg): reduced number of response failures; amplitude of induced potentials (in words) [3]: increased greater in the left hemisphere; Change of amplitude of induced potential, % of the control, left hemisphere ([3]; hypodermally 5 mg/kg): 270%; Change of amplitude of induced potential, % of the control, right hemisphere ([3]; hypodermally 5 mg/kg): 200%; Mean value of amplitude of induced potential, % ([3]; hypodermally 5 mg/kg): 235%; choice of the right side of the labyrinth (in words) [4]: statistically markedly increased; Number of runs to the right, Series I ([4]; hypodermally 5 mg/kg): 10; Number of runs to the right, Series II ([4]; hypodermally 5 mg/kg): 12; Number of runs to the right, Series III ([4]; hypodermally 5 mg/kg): 14; Number of runs to the right, Series I ([4]; hypodermally 10 mg/kg): 9; Number of runs to the right, Series II ([4]; hypodermally 10 mg/kg): 14; Number of runs to the right, Series III ([4]; hypodermally 10 mg/kg): 15; LD50 (mice): 44 mg/kg; chronic toxicity (rats [5]): no toxic effect; chronic toxicity (dogs): no toxic effect; allergenic effect [6]: no allergenic effect; side effects, rare cases (patients; eliminated by lowering dose or temporary suspension): reduction or elevation of arterial pressure and bradycardia; tolerability (patients; patients): well-bearable by patients; side effects (patients; signs of stimulation of m-cholinergic systems): nausea, diarrhea, less frequently--vomition
